From patent publication US20250002455A1, “NEW N-PHENYLPYRROLAMIDE INHIBITORS OF DNA GYRASE AND TOPOISOMERASE IV WITH ANTIBACTERIAL ACTIVITY” (priority 2020, published 2025) come the findings set out here.

The structures appear in SMILES notation.

Experiment [1] deals with T1, S. aureus topoisomerase IV (Staphylococcus aureus, UniProt P0C1S7).
T1 construct: purchased Inspiralis
As to the kind of experiment: Topoisomerase IV inhibition assay (Inspiralis, streptavidin-coated plates). As to conditions: for remaining activity at 0.1 µM: 0.1 μM compound. It is filed as biochemical. On the procedure:
Inhibitory activities for compounds of the present invention were determined on E. coli and S. aureus DNA gyrase and topoisomerase IV in an assay from Inspiralis on streptavidin-coated 96-well microtiter plates from Thermo scientific Pierce. […] After washing off the unbound oligonucleotide, the enzyme test was performed. […] Reaction solutions were incubated at 37° C. for 30 min. After that, the TF buffer (50 mM NaOAc with pH 5.0, 50 mM NaCl and 50 mM MgCl2) was added to terminate the enzymatic reaction. After additional incubation for 30 min at rt, during which biotin-oligonucleotide-plasmid triplex was formed, the unbound plasmid was washed off using TF buffer and SybrGOLD in T10 buffer (10 mM Tris HCl with pH 8.0 and 1 mM EDTA) was added. […] Initial screening was done at 100 or 10 nM concentration of inhibitors against E. coli DNA gyrase or 1 μM or 100 nM concentration against S. aureus DNA gyrase and E. coli and S. aureus topo IV. […] GraphPad Prism 6.0 software was used to calculate the IC50 values. The result is given as the average value of three independent measurements. […] Chemoth.

Another experiment has as its target T2, E. coli DNA gyrase (Escherichia coli, UniProt P0AES6).
T2 construct: purchased Inspiralis
As to the kind of experiment: biochemical. As to conditions: E. coli DNA gyrase; for IC50: read-out: IC50; for remaining activity at 1 µM: 1 μM compound. Summed up: (§1)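 Triplex-capture format: plasmid bound to a biotinylated oligonucleotide on streptavidin plates after reaction at 37 °C for 30 min. The reaction was stopped with TF buffer (50 mM NaOAc pH 5.0, 50 mM NaCl, 50 mM MgCl2), and captured DNA was stained with SybrGOLD. IC50 values are the mean of three independent measurements.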

Experiment [2] deals with E. aerogenes (ATCC 13408). As to the kind of experiment: Microbroth dilution MIC (CLSI). Format: cell-based, Enterobacter aerogenes. As to conditions: Klebsiella aerogenes, ATCC13408; E. aerogenes (ATCC 13408); read-out: MIC. On the procedure: The chemical entities described in the present invention were assessed for their antimicrobial activity using a microbroth dilution assay as recommended by the CLSI (Methods for Dilution Antimicrobial Susceptibility Tests for Bacteria That Grow Aerobically, and Methods for Antimicrobial Susceptibility Testing of Anaerobic Bacteria, Clinical and Laboratory Standards Institute, Document M07-A8, and M11-A8, Wayne, PA 19087, USA, 2012.). Compounds were dissolved by using 100% DMSO. Serial two-fold dilutions of each compound were made by using 100% DMSO as the diluent.
A library of Gram-negative and Gram-positive microbes and their drug- and multidrug-resistant variants were employed as test organisms. The MIC (minimum inhibitory concentration) was determined as the lowest concentration of an individual drug that lead to no visible growth.
On the technique in general: In broth dilution the organism is exposed to a series of concentrations in liquid medium.

A further experiment relates to E. coli ATCC 25922. Put plainly: Microbroth dilution MIC (CLSI). Format: cell-based. To be noted: Escherichia coli, ATCC25922; E. coli ATCC 25922; read-out: MIC. Summed up:
(§2)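 CLSI microbroth dilution per M07-A8 (aerobes) and M11-A8 (anaerobes). Compounds dissolved and serially diluted two-fold in 100% DMSO. MIC taken as the lowest concentration giving no visible growth.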

The subject of experiment [3] is K. pneumoniae (ATCC 700603). As to the kind of experiment: Microbroth dilution MIC (CLSI). It is filed as cell-based. As to conditions: Klebsiella pneumoniae, ATCC700603; K. pneumoniae (ATCC 700603); read-out: MIC. Summed up: as §2
The next experiment concerns S. aureus ATCC 29213. Put plainly: Microbroth dilution MIC (CLSI). As to conditions: Staphylococcus aureus, ATCC29213; S. aureus ATCC 29213; read-out: MIC. Format: cell-based. Summed up: as §2
In another experiment the test system is E. faecium (ATCC 35667). As to the kind of experiment: Microbroth dilution MIC (CLSI). It is filed as cell-based. To be noted: Enterococcus faecium, ATCC35667; E. faecium (ATCC 35667); read-out: MIC. Summed up: as §2
In a further experiment the test system is P. aeruginosa ATCC 27853. Put plainly: Microbroth dilution MIC (CLSI). Format: cell-based. To be noted: Pseudomonas aeruginosa, ATCC27853; P. aeruginosa ATCC 27853; read-out: MIC. Summed up: as §2
The test system of experiment [4] is A. baumannii (ATCC 19606). Put plainly: Microbroth dilution MIC (CLSI). To be noted: Acinetobacter baumannii, ATCC19606; A. baumannii (ATCC 19606); read-out: MIC. It is filed as cell-based. Summed up: as §2
A further experiment addresses T3, E. coli topoisomerase IV (Escherichia coli, UniProt P20083).
T3 construct: purchased Inspiralis
As to the kind of experiment: biochemical. To be noted: E. coli topo IV. Summed up: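 Supercoiling/relaxation read via biotin-oligonucleotide triplex capture on streptavidin plates; reactions 30 min at 37° C, stopped with TF buffer pH 5.0, plasmid stained with SybrGOLD.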

For experiment [5], the system named is S. aureus ATCC 43300 (MRSA). As to the kind of experiment: Microbroth dilution MIC (CLSI). It is filed as cell-based. To be noted: Staphylococcus aureus; S. aureus ATCC 43300 (MRSA); read-out: MIC. Summed up: as §2
Another experiment concerns A. baumannii ATCC 17978. Put plainly: Microbroth dilution MIC (CLSI). Format: cell-based. To be noted: Acinetobacter baumannii, ATCC17978; A. baumannii ATCC 17978; read-out: MIC. Summed up: as §2
The next experiment has as its system E. faecalis ATCC 29212. Put plainly: Microbroth dilution MIC (CLSI). To be noted: Enterococcus faecalis, ATCC29212; E. faecalis ATCC 29212; read-out: MIC. Format: cell-based. Summed up:
as §2

Another experiment relates to K. pneumoniae ATCC 10031. Put plainly: Microbroth dilution MIC (CLSI). It is filed as cell-based. As to conditions: Klebsiella pneumoniae, ATCC10031; K. pneumoniae ATCC 10031; read-out: MIC. Summed up: as §2
Experiment [6] relates to E. spp. cloacae ATCC 13047. Put plainly: Microbroth dilution MIC (CLSI). It is filed as cell-based. To be noted: Enterobacter cloacae, ATCC13047; E. spp. cloacae ATCC 13047; read-out: MIC. Summed up:
as §2

Another experiment addresses T4, S. aureus DNA gyrase (Staphylococcus aureus, UniProt P0A0K8).
T4 construct: purchased Inspiralis
Put plainly: biochemical. As to conditions: S. aureus DNA gyrase. Summed up: as §1

A further experiment relates to E. faecium ATCC 700221. Put plainly: Microbroth dilution MIC (CLSI). Format: cell-based. To be noted: Enterococcus faecium, ATCC700221; E. faecium ATCC 700221; read-out: MIC. Summed up: as §2
The test system of experiment [7] is S. aureus ATCC 700699 (VISA). Put plainly: Microbroth dilution MIC (CLSI). To be noted: Staphylococcus aureus; S. aureus ATCC 700699 (VISA); read-out: MIC. It is filed as cell-based. Summed up: as §2
Where [8] appears, read: S. aureus topo IV, read-out: RA (residual activity of the enzyme).
Setting [9] is: 0.1 μM compound, read-out: RA (residual activity of the enzyme).
[10] abbreviates: read-out: RA (residual activity of the enzyme).

T4 sequence (P20831 whole entry): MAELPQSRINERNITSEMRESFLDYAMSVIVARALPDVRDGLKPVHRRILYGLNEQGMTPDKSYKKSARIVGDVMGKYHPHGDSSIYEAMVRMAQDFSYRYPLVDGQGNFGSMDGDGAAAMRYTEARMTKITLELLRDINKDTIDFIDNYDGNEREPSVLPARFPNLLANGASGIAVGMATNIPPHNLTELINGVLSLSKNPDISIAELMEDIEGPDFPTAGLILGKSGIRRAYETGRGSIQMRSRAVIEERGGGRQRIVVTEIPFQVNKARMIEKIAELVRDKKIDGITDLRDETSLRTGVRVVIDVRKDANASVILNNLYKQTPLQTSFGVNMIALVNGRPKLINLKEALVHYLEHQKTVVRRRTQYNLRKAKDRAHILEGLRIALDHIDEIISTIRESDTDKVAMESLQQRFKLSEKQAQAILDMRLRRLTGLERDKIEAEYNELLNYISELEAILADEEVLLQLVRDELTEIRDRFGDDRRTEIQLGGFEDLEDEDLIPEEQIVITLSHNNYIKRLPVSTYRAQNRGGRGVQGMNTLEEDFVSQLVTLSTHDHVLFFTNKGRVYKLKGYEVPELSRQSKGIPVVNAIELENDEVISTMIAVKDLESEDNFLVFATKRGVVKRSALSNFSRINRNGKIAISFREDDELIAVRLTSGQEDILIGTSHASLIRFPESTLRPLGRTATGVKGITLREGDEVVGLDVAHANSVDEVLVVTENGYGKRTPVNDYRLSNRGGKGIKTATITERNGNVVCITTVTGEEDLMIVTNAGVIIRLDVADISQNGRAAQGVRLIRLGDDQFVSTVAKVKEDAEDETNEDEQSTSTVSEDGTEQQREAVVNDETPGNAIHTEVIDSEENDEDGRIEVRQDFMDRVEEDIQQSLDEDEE
T4 sequence (P0A0K8 whole entry): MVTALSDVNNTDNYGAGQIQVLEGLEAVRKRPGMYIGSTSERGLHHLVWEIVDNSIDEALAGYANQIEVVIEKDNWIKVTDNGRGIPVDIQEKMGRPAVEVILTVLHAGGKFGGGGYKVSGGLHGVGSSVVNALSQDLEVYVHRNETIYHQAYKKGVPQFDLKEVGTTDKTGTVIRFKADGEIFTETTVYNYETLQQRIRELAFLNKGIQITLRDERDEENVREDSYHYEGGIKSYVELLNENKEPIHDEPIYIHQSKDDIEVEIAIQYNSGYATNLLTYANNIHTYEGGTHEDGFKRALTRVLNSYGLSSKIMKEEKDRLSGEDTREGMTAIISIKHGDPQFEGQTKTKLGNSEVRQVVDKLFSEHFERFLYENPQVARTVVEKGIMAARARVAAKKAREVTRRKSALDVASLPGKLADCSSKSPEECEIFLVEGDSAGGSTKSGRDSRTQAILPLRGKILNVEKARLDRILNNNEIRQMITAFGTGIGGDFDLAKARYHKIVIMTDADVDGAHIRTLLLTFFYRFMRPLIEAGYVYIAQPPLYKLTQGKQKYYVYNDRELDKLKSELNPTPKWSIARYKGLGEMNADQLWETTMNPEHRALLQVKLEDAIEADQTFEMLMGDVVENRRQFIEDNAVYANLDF
T1 sequence (P0C1U9 whole entry): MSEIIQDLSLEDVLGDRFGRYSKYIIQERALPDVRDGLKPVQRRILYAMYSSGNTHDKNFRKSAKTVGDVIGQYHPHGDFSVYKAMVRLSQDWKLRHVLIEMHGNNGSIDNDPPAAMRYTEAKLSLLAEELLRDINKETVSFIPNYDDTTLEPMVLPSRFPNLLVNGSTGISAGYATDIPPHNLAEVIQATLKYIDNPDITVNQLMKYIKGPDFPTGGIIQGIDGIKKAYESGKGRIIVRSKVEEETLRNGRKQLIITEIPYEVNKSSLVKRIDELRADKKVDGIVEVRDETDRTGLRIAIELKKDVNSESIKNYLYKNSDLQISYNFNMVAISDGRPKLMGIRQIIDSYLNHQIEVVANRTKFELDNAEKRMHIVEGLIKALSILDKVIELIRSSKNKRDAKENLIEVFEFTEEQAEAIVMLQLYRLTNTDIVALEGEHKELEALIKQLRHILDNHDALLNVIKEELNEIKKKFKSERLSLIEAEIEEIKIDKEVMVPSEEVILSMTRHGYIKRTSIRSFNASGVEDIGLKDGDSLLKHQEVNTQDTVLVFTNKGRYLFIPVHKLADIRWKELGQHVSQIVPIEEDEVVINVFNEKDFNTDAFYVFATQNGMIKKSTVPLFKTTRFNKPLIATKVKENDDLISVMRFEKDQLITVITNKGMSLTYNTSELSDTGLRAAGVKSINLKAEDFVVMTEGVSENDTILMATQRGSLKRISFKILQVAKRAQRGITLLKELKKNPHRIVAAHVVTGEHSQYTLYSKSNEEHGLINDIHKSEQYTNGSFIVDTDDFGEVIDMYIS
T1 sequence (P0C1S7 whole entry): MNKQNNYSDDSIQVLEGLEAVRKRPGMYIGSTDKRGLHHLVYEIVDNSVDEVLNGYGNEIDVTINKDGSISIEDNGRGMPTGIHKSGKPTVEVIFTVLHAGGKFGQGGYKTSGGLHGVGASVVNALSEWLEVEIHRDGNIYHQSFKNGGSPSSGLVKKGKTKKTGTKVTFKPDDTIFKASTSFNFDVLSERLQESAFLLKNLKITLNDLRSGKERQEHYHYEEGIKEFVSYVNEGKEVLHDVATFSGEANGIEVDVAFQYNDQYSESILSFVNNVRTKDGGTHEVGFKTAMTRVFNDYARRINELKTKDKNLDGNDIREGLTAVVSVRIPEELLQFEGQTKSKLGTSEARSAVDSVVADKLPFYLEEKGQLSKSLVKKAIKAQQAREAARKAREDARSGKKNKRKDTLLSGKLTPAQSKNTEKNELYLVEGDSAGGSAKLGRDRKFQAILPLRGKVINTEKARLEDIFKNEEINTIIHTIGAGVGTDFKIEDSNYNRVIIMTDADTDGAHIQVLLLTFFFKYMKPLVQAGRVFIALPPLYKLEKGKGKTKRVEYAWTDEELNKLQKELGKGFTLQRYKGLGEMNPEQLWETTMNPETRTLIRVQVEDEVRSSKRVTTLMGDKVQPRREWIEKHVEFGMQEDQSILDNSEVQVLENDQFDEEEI
T3 sequence (P0AFI2 whole entry): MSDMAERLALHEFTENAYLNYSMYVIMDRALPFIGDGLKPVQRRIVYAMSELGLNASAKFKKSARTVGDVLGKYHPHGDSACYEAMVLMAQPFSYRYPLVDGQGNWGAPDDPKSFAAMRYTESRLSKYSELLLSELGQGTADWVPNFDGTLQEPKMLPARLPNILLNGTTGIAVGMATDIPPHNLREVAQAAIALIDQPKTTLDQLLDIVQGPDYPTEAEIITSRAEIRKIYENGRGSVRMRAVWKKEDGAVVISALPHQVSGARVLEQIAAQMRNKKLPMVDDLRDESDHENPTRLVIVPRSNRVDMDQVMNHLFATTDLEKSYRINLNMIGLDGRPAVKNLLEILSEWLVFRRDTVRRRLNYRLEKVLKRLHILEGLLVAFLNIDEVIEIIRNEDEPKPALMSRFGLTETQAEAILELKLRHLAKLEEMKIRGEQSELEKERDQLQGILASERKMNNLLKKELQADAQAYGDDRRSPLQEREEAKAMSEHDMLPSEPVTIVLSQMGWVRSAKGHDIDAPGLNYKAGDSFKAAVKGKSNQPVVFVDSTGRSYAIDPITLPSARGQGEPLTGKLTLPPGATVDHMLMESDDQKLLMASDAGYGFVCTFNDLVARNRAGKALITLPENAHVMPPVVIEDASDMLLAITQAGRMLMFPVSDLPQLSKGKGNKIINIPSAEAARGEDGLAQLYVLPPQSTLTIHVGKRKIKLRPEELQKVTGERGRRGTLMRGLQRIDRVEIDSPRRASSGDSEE
T3 sequence (P20083 whole entry): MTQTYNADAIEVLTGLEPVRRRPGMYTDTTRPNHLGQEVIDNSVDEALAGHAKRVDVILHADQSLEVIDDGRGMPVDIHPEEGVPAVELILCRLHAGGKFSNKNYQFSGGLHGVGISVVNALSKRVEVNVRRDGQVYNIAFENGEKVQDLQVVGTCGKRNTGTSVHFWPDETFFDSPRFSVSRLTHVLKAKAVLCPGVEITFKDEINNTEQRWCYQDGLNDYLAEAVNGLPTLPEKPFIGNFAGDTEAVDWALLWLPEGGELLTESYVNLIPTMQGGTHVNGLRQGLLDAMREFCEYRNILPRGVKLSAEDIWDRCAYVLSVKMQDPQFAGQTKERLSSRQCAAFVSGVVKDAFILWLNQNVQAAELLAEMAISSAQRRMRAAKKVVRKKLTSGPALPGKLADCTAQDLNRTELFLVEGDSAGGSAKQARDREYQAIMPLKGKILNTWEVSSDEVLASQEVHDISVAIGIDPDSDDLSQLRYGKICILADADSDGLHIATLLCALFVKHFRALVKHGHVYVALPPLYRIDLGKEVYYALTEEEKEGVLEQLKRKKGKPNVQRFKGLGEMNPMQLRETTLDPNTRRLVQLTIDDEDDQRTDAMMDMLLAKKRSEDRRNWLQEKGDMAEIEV

For the molecule `Cc1[nH]c(C(=O)Nc2ccc(-c3noc(=O)[nH]3)cc2N2CCOCC2)c(Cl)c1Cl` [Example 8, 3,4-Dichloro-5-methyl-N-(2-morpholino-4-(5-oxo-4,5-dihydro-1,2,4-oxadiazol-3-yl)phenyl)-1H-pyrrole-2-carboxamide], in experiment [1] (setting [8]), the remaining activity at 0.1 µM worked out at 51%. For the same molecule, the remaining activity at 1 µM in experiment [1] (S. aureus topo IV, 1 μM compound, read-out: RA (residual activity of the enzyme)) came to 10%. Moreover, the IC50 (usually the concentration that inhibits the measured activity by half) on E. coli DNA gyrase was 13 nM.
Consider `Cc1[nH]c(C(=O)Nc2ccc(C(=O)O)cc2N2CCC[C@H](N)C2)c(Cl)c1Cl.Cl` [Example 14, (S)-1-(5-carboxy-2-(3,4-dichloro-5-methyl-1H-pyrrole-2-carboxamido)phenyl)piperidin-3-aminium chloride], for which the MIC (in experiment [2]; in the experiment on E. coli ATCC 25922; in [3]; in the experiment with S. aureus ATCC 29213; in the experiment with E. faecium (ATCC 35667); in the experiment on P. aeruginosa ATCC 27853) was at least 64 µg/mL throughout. In addition, the MIC (as a rule, the lowest concentration found to suppress growth) in experiment [4] was at least 64 µg/mL. Moreover, at E. coli DNA gyrase (setting [9]), the remaining activity at 0.1 µM is 52%. Moreover, the remaining activity at 1 µM on E. coli DNA gyrase (setting [10]) was -2%.
For `Cc1[nH]c(C(=O)Nc2ccc(-c3n[nH]c(=O)o3)cc2N2CC[C@H](N)C2)c(Cl)c1Cl.Cl` [Example 20, (S)-1-(2-(3,4-Dichloro-5-methyl-1H-pyrrole-2-carboxamido)-5-(5-oxo-4,5-dihydro-1,3,4-oxadiazol-2-yl)phenyl)pyrrolidin-3-aminium chloride], at E. coli topoisomerase IV (1 μM compound, read-out: RA (residual activity of the enzyme)), the remaining activity at 1 µM is 105%. Moreover, the remaining activity at 0.1 µM in experiment [1] (setting [8]) was found to be 99%; at S. aureus DNA gyrase (setting [9]), 39%. The MIC stood at 8 µg/mL with E. coli ATCC 25922; 2 µg/mL in experiment [5]; 2 µg/mL in the experiment on S. aureus ATCC 29213; 8 µg/mL in the experiment on A. baumannii ATCC 17978; 1 µg/mL in the experiment on E. faecalis ATCC 29212; 32 µg/mL in the experiment with P. aeruginosa ATCC 27853. The MIC with K. pneumoniae ATCC 10031 worked out at 0.064 µg/mL; in experiment [6], 32 µg/mL. For the same molecule, at S. aureus DNA gyrase (0.01 μM compound, read-out: RA (residual activity of the enzyme)), the remaining activity at 0.01 µM amounted to 90%. The IC50 on E. coli DNA gyrase came out at 2.8 nM.
For the molecule `Cc1nnc(-c2ccc(NC(=O)c3[nH]c(C)c(Cl)c3Cl)c(OC(C)C)c2)o1` [Example 21, 3,4-Dichloro-N-(2-isopropoxy-4-(5-methyl-1,3,4-oxadiazol-2-yl)phenyl)-5-methyl-1H-pyrrole-2-carboxamide], the MIC (in experiment [2]; in the experiment on E. coli ATCC 25922; in experiment [3]; with S. aureus ATCC 29213; in the experiment with E. faecium (ATCC 35667); in the experiment on P. aeruginosa ATCC 27853) was at least 64 µg/mL each time. In addition, in [4], the MIC is at least 64 µg/mL. For the same molecule, the remaining activity at 1 µM at E. coli DNA gyrase (setting [10]) stood at 95%.
Consider `Cc1[nH]c(C(=O)Nc2ccc(-n3nn[nH]c3=O)cc2N2CCC(N)CC2)c(Cl)c1Cl.Cl` [Example 23, 1-(2-(3,4-Dichloro-5-methyl-1H-pyrrole-2-carboxamido)-5-(5-oxo-4,5-dihydro-1H-tetrazol-1-yl)phenyl)piperidin-4-aminium chloride], for which the half-maximal inhibitory concentration (IC50) on E. coli topoisomerase IV (read-out: IC50) came to 11500 nM; in [1], 6200 nM; on S. aureus DNA gyrase (read-out: IC50) it was 216 nM; on E. coli DNA gyrase, 3.96 nM. Moreover, the MIC (in the experiment on E. faecium ATCC 700221; in [7]; with E. coli ATCC 25922; in experiment [5]; in the experiment on S. aureus ATCC 29213; with A. baumannii ATCC 17978) was at least 32 µg/mL each time. For the same molecule, the MIC (in the experiment with E. faecalis ATCC 29212; in the experiment on P. aeruginosa ATCC 27853; with K. pneumoniae ATCC 10031; in [6]) was at least 32 µg/mL throughout.
With `Cl.N[C@@H]1CCN(c2cc(C(=O)NCC(=O)O)ccc2NC(=O)c2cc(Br)c(Br)[nH]2)C1` [Example 37, (R)-1-(5-((Carboxymethyl)carbamoyl)-2-(4,5-dibromo-1H-pyrrole-2-carboxamido)phenyl)pyrrolidin-3-aminium chloride], the MIC (in experiment [2]; in the experiment with E. coli ATCC 25922; in [3]; with S. aureus ATCC 29213; in the experiment on E. faecium (ATCC 35667); in the experiment with P. aeruginosa ATCC 27853) was at least 64 µg/mL in each case. The MIC in experiment [4] was at least 64 µg/mL. The remaining activity at 10 µM on S. aureus DNA gyrase (10 μM compound, read-out: RA (residual activity of the enzyme)) is 78%. For the same molecule, on E. coli DNA gyrase, the IC50 stood at 2380 nM.
